Experimental data reported in patent publication US8178512B2, “Methods and compositions for treating diseases and disorders associated with siglec-8” (Johns Hopkins University, priority 2004, dated 2012).
pKd: −log10 of the molar value. Values joined by “and” are separate entries in the source; they are usually repeats but may differ in a detail not shown here. Equal entries are not always repeated. “Also recorded” adds a separate entry of the source. Where two headings read alike, the source gives them in different places.

Legend:
Siglec-8-Ig [1] = target: T1, Siglec-8-Ig (Homo sapiens, UniProt Q9NYZ4); assay: Siglec-8-Ig binding affinity by surface plasmon resonance (SPR), biotinylated glycosides on streptavidin sensor chip; conditions: for Siglec-8-Ig binding by SPR (in words): LacNAc reference surface; for Siglec-8-Ig binding by SPR (in words) / pKd: SPR; for pKd: 25° C., equilibrium binding, Siglec-8-Ig 0.1-18 uM, read-out: dissociation constant (Kd) of Siglec-8-Ig binding
T1 construct: The extracellular domain of Siglec-8 was inserted in frame with a Factor Xa cleavage site and the Fc portion of human IgG1; made in house; host or cells: CHOEA1 cells (electroporated), purified from supernatants on Protein A Sepharose
T1 sequence (Q9NYZ4 17-363 limits assumed): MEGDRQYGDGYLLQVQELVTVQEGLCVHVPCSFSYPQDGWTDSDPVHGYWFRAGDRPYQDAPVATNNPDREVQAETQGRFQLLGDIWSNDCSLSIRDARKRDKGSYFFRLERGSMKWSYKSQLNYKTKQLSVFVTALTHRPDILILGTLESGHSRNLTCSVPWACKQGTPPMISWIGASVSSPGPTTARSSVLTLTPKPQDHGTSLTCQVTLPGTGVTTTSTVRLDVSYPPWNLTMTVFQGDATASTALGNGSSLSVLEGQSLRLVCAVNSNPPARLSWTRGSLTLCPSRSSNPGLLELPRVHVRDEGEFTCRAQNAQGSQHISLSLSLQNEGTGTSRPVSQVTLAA
Method: (§1) The extracellular domain of Siglec-8 was inserted in frame with a Factor Xa cleavage site and the Fc portion of human IgG1, expanded in electroporated CHOEA1 cells, and then purified from supernatants (final concentration: 2.4 mg/ml) using Protein A Sepharose as previously described (Kikly, K. K., Bochner, B. S., Freeman, S., Tan, K. B., Gallagher, K. T., D'Alessio, K., Holmes, S. D., Abrahamson, J., Hopson, C. B., Fischer, E. I., Erickson-Miller, C. L., Tachimoto, H., Schleimer, R. P., and White, J. R. (2000) J. Allergy Clin. Immunol. 105, 1093-1100).
All SPR experiments were performed at 25° C. on a Biacore 3000 instrument (Biacore Inc., Piscataway, N.J.). Biotinylated glycosides were captured on research grade streptavidin (SA) coated sensor chips (Sensor Chip SA, Biacore) that were pre-treated according to the manufacturer's instructions. A solution of each biotinylated glycoside (10 fmol/μl) was injected at 2 μl/min in PBS (pH 7.4) containing 0.005% Tween-20 (running buffer) for varying lengths of time (3-7 minutes) until an optimal amount of glycan was captured on each independent surface. Three related glycosides were studied using one SA sensor chip. […] Increasing concentrations of Siglec-8-Ig (0.1-18 uM) were injected at a flow rate of 60 μl/min over all four surfaces of the sensor chip. […] The equilibrium binding data of Siglec-8-Ig were analyzed by non-linear curve fitting using the BIAevaluation software (Biacore Inc.).
The binding affinities of Siglec-8 for #108, #182 and #181 (FIGS. 3A-C, respectively) were determined on a Biacore B3000 instrument using a streptavidin-coated sensor chip. LacNAc glycoside was captured on one surface of the sensor chip and used as negative control (data not shown).

Siglec-8-Ig [2] = target: T1, Siglec-8-Ig; assay: Binding of Siglec-8-Ig to aminoalkyl glycosides immobilized on activated (N-hydroxysuccinimidyl) glass surfaces; conditions: highest concentration tested 300 pmol/spot
Excerpt: A description of the printing and evaluation of the full array in this format has been submitted elsewhere (Ola Blixt, Steve Head, Tony Mondala, Christopher Scanlan, Margaret E. Huflejt, Richard Alvarez, Marian C. Bryan, Fabio Fazio, Daniel Calarese, James Stevens, Nahid Razi, David J. Stevens, John J. Skehel, Irma van Die, Dennis Burton, Ian A. Wilson, Richard Cummings, Nicolai Bovin, Chi-Huey Wong, and James C. Paulson ([…]) Proc. Natl. Acad. Sci. USA 101, 17033-17038). FITC-labeled goat anti-human IgG (Fc specific) was from Jackson Immunoresearch (West Grove, Pa.). […]
A solution of 100 μg/ml Siglec-8-Ig and 50 μg/ml FITC-labeled goat anti-human IgG (Fc-specific) in Dulbecco's PBS containing 0.005% Tween 20 was incubated for 30 min at 37° C. to allow complexes to form. […] An image of the bound fluorescence was obtaining using a microarray scanner (ScanArray Express, PerkinElmer Life Sciences, Boston, Mass.). The integrated spot intensities were determined using Metamorph software (Universal Imaging, Downingtown, Pa.). […]

[3] = target: T2, Siglec-8-Ig fusion protein (Homo sapiens, UniProt Q9NYZ4); assay: Glycan array screening: Siglec-8-Ig binding to biotinylated glycosides on streptavidin-coated 384-well plates; conditions: 172 structures screened
T2 construct: The extracellular domain of Siglec-8 was inserted in frame with a Factor Xa cleavage site and the Fc portion of human IgG1; made in house; host or cells: CHOEA1 cells (electroporated), purified from supernatants on Protein A Sepharose
T2 sequence (Q9NYZ4 17-363 limits assumed): as above
Method: as §1
Biotinylated glycosides (Korchagina, E., and Bovina, N. V. (1992) Bioorg Khim 18, 283-298) were coated in replicates of n=3 or n=4 on streptavidin-coated microtiter plates (Pierce Reacti-Bind™ NeutrAvidin™ Coated High Binding Capacity Black 384-Well Plates, Product #15513, Rockford, Ill.). Each well was incubated overnight at 4° C. with 30 pmol/well of glycoside in 25 ul phosphate buffered saline (PBS), pH 7.4. The plates were washed three times with 100 ul PBS using an automated plate washer (Molecular Devices, Sunnyvale, Calif.) and stored sealed at 4° C. in 25 ul/well PBS with 0.1% azide until use. Prior to assay, the plates were washed three times with 100 ul/well wash buffer (20 mM Tris-HCl pH 7.4, 150 mM NaCl, 2 mM CaCl2, 2 mM MgCl2 and 0.05% Tween 20). A stock solution of Siglec-8-Ig (30 ug/ml) was added to each well in 25 ul binding buffer (wash buffer plus 1% BSA) and incubated at room temperature for one hour. The plates were washed three times with 100 ul/well wash buffer and incubated for one hour with 25 ul/well goat anti-human IgG-Alexa 488 (Molecular Probes, Cat. No. A11013, Eugene, Oreg.) at 5 ug/ml in binding buffer. The plates were washed and read in 25 ul wash buffer on a Victor 2™ 1420 Multilabel Counter (PerkinElmer Life Sciences, Fremont, Calif.) at excitation 485/emission 535. The current version of the Consortium glycan array can be viewed at:
(http://www.functionalglycomics.org/static/consortium/resources/resourcecoreh.shtml), experiments were initiated to identify compounds that selectively and specifically bind to Siglec-8. Using Siglec-8-Ig fusion protein, a panel of 172 carbohydrate-based structures (see Table 1) was screened for specific Siglec-8 binding. […] The spacer arm itself, —O(CH2)3NH—CO(CH2)5NH-Biotin, found on many of the other non-binding structures, cannot explain the binding activity for Siglec-8.

[4] = system: Siglec-G-Ig fusion protein; conditions: Consortium website; cited from earlier work
Siglec-F = target: T3, Siglec-F (Mus musculus, UniProt Q920G3); conditions: Consortium website; cited from earlier work
T3 sequence (Q920G3 17-569): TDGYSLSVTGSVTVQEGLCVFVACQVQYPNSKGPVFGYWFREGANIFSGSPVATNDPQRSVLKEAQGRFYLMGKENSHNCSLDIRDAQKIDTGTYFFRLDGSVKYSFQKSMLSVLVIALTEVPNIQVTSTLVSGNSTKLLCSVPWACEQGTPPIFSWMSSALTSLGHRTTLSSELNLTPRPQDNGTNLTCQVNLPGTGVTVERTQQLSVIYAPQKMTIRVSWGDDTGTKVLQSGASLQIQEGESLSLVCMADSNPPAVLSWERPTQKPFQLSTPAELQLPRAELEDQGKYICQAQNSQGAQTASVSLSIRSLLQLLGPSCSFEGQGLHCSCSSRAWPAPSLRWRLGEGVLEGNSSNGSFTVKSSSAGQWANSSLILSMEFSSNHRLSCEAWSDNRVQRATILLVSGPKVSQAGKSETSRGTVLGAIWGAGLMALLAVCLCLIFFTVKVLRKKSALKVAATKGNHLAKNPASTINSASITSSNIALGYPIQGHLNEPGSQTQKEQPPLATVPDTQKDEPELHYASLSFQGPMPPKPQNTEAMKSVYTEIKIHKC

In the case of `CC(=O)N[C@H]1[C@H](OCCNC(=O)CCCCCNC(=O)CCCCCNC(=O)CCCC[C@@H]2SC[C@@H]3NC(=O)N[C@@H]32)O[C@H](CO)[C@@H](O[C@@H]2O[C@H](CO)[C@H](O)[C@H](O[C@]3(C(=O)O)C[C@H](O)[C@@H](NC(C)=O)[C@H]([C@H](O)[C@H](O)CO)O3)[C@H]2O)[C@@H]1O[C@@H]1O[C@@H](C)[C@@H](O)[C@@H](O)[C@@H]1O` [#108, NeuAcα2-3Galβ1-4(Fucα1-3)GlcNAcβ1-O(CH2)2NHCO(CH2)5NHCO(CH2)5NH-Biotin], the “Siglec-8-Ig binding by SPR (in words)” value (Siglec-8-Ig [1]; listed as sLe^x) was “failed to support detectable Siglec-8 binding; also recorded: No binding”, the “Siglec-8 binding to glycan immobilized on glass slide (in words)” value (Siglec-8-Ig [2]) was “did not support any Siglec-8 binding” and the “Siglec-8-Ig binding in glycan array (in words)” value ([3]; listed as sLe^x) was “failed to bind”.
In the case of “Galβ1-4GlcNAc [LacNAc, reference compound]”, the “Siglec-8-Ig binding by SPR (in words)” value (Siglec-8-Ig [1]) was “non-binding”.
For `CC(=O)N[C@H]1[C@H](OCCCNC(=O)CCCCCNC(=O)CCCC[C@@H]2SC[C@@H]3NC(=O)N[C@@H]32)O[C@H](CO)[C@@H](O[C@@H]2O[C@H](COS(=O)(=O)O)[C@H](O)[C@H](O[C@]3(C(=O)O)C[C@H](O)[C@@H](NC(C)=O)[C@H]([C@H](O)[C@H](O)CO)O3)[C@H]2O)[C@@H]1O[C@@H]1O[C@@H](C)[C@@H](O)[C@@H](O)[C@@H]1O` [#181, NeuAcα2-3(6-O-sulfo)Galβ1-4(Fucα1-3)GlcNAcβ1-O(CH2)3NH—CO(CH2)5NH-Biotin], the “association and dissociation profiles (in words)” value (Siglec-8-Ig [1]; SPR sensorgrams) was “very fast association and dissociation profiles”, the pKd (Siglec-8-Ig [1]; listed as 6′-sulfo-sLe^x) was 5.64 and 5.64 to 5.66 and the pKd (Siglec-8-Ig [1]) was 5.60 to 5.70. For the same molecule, the “Siglec-8-Ig binding by SPR (in words)” value (Siglec-8-Ig [1]) was “specific binding”, the “Siglec-8-Ig binding by SPR (in words)” value (Siglec-8-Ig [1]; listed as 6′-sulfo-sLe^x) was “significant binding; also recorded: reproducible binding” and the “binding to Siglec-G-Ig fusion protein (in words)” value [4] was “failed to show specific binding”. The “Siglec-8-Ig binding in glycan array (in words)” value [3] was “stands out among all the others for binding activity; also recorded: By far the greatest binding”, the “Siglec-8-Ig binding in glycan array (in words)” value ([3]; listed as 6′-sulfo-sLe^x) was “avid binding” and the “binding to Siglec-F (in words)” value (Siglec-F) was “selectively binds”.
In the case of `CC(=O)N[C@H]1[C@H](OCCCNC(=O)CCCCCNC(=O)CCCC[C@@H]2SC[C@@H]3NC(=O)N[C@@H]32)O[C@H](COS(=O)(=O)O)[C@@H](O[C@@H]2O[C@H](CO)[C@H](O)[C@H](O[C@]3(C(=O)O)C[C@H](O)[C@@H](NC(C)=O)[C@H]([C@H](O)[C@H](O)CO)O3)[C@H]2O)[C@@H]1O[C@@H]1O[C@@H](C)[C@@H](O)[C@@H](O)[C@@H]1O` [#182, NeuAcα2-3Galβ1-4(Fucα1-3)(6-O-Su)GlcNAcβ1-O(CH2)3NH—CO(CH2)5NH-Biotin], the “Siglec-8-Ig binding by SPR (in words)” value (Siglec-8-Ig [1]; listed as 6-sulfo-sLe^x) was “failed to support detectable Siglec-8 binding; also recorded: No binding”, the “Siglec-8 binding to glycan immobilized on glass slide (in words)” value (Siglec-8-Ig [2]) was “did not support any Siglec-8 binding” and the “Siglec-8-Ig binding in glycan array (in words)” value ([3]; listed as 6-sulfo-sLe^x) was “failed to bind”.
